{"source": "patent US8192962B2", "about": "“Processes for detecting toxic substances” (Daikin Industries, Ltd., priority 2001, dated 2012)", "tested_on": "Energy system protein genes", "experiment": "DNA chip mRNA expression in yeast, energy system protein genes (Table 4)", "format": "cell-based, Saccharomyces cerevisiae S288C", "how_it_was_run": "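In this screen, yeast in logarithmic growth are challenged for two hours with a toxic substance at a non-lethal inhibitory concentration. Their mRNA, converted to Cy3- or Cy5-labeled cDNA, hybridizes at 65° C. to a chip spanning every yeast gene, and expression is expressed as a ratio to untreated cells.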", "data": [{"smiles": "O=[N+]([O-])c1cc[n+]([O-])c2ccccc12", "note": "[(5), 4-nitroquinolin-N-oxide]", "values": [{"measurement": "The level of expressed mRNA in the presence of chemical substance/The level of expressed mRNA in the absence of chemical substance", "setting": "yeast gene YAL060W", "result": 1.2}, {"measurement": "The level of expressed mRNA in the presence of chemical substance/The level of expressed mRNA in the absence of chemical substance", "setting": "yeast gene YBL058W, cells incubated two hours with the chemical substance", "result": 1.6}, {"measurement": "The level of expressed mRNA in the presence of chemical substance/The level of expressed mRNA in the absence of chemical substance", "setting": "yeast gene YBL099W, cells incubated two hours with the chemical substance", "result": 1.0}, {"measurement": "The level of expressed mRNA in the presence of chemical substance/The level of expressed mRNA in the absence of chemical substance", "setting": "yeast gene YBR001C, cells incubated two hours with the chemical substance", "result": 0.9}, {"measurement": "The level of expressed mRNA in the presence of chemical substance/The level of expressed mRNA in the absence of chemical substance", "setting": "yeast gene YBR185C, cells incubated two hours with the chemical substance", "result": 0.8}, {"measurement": "The level of expressed mRNA in the presence of chemical substance/The level of expressed mRNA in the absence of chemical substance", "setting": "yeast gene YBR221C, cells incubated two hours with the chemical substance", "result": 1.3}, {"measurement": "The level of expressed mRNA in the presence of chemical substance/The level of expressed mRNA in the absence of chemical substance", "setting": "yeast gene YCL040W", "result": 0.5}, {"measurement": "The level of expressed mRNA in the presence of chemical substance/The level of expressed mRNA in the absence of chemical substance", "setting": "yeast gene YCR012W", "result": 1.1}, {"measurement": "The level of expressed mRNA in the presence of chemical substance/The level of expressed mRNA in the absence of chemical substance", "setting": "yeast gene YCR046C, cells incubated two hours with the chemical substance", "result": 1.0}, {"measurement": "The level of expressed mRNA in the presence of chemical substance/The level of expressed mRNA in the absence of chemical substance", "setting": "yeast gene YCR105W, cells incubated two hours with the chemical substance", "result": 0.9}, {"measurement": "The level of expressed mRNA in the presence of chemical substance/The level of expressed mRNA in the absence of chemical substance", "setting": "yeast gene YDL021W", "result": 1.7}, {"measurement": "The level of expressed mRNA in the presence of chemical substance/The level of expressed mRNA in the absence of chemical substance", "setting": "yeast gene YDL067C, cells incubated two hours with the chemical substance", "result": 2.0}, {"measurement": "The level of expressed mRNA in the presence of chemical substance/The level of expressed mRNA in the absence of chemical substance", "setting": "yeast gene YDL078C, cells incubated two hours with the chemical substance", "result": 1.3}, {"measurement": "The level of expressed mRNA in the presence of chemical substance/The level of expressed mRNA in the absence of chemical substance", "setting": "yeast gene YDL107W, cells incubated two hours with the chemical substance", "result": 1.0}, {"measurement": "The level of expressed mRNA in the presence of chemical substance/The level of expressed mRNA in the absence of chemical substance", "setting": "yeast gene YDL174C", "result": 0.5}, {"measurement": "The level of expressed mRNA in the presence of chemical substance/The level of expressed mRNA in the absence of chemical substance", "setting": "yeast gene YDL181W, cells incubated two hours with the chemical substance", "result": 1.7}, {"measurement": "The level of expressed mRNA in the presence of chemical substance/The level of expressed mRNA in the absence of chemical substance", "setting": "yeast gene YDR001C", "result": 1.1}, {"measurement": "The level of expressed mRNA in the presence of chemical substance/The level of expressed mRNA in the absence of chemical substance", "setting": "yeast gene YDR050C, cells incubated two hours with the chemical substance", "result": 0.9}, {"measurement": "The level of expressed mRNA in the presence of chemical substance/The level of expressed mRNA in the absence of chemical substance", "setting": "yeast gene YDR079W, cells incubated two hours with the chemical substance", "result": 1.2}, {"measurement": "The level of expressed mRNA in the presence of chemical substance/The level of expressed mRNA in the absence of chemical substance", "setting": "yeast gene YDR178W, cells incubated two hours with the chemical substance", "result": 0.9}, {"measurement": "The level of expressed mRNA in the presence of chemical substance/The level of expressed mRNA in the absence of chemical substance", "setting": "yeast gene YDR231C", "result": 1.1}, {"measurement": "The level of expressed mRNA in the presence of chemical substance/The level of expressed mRNA in the absence of chemical substance", "setting": "yeast gene YDR298C, cells incubated two hours with the chemical substance", "result": 1.3}, {"measurement": "The level of expressed mRNA in the presence of chemical substance/The level of expressed mRNA in the absence of chemical substance", "setting": "yeast gene YDR377W, cells incubated two hours with the chemical substance", "result": 1.9}, {"measurement": "The level of expressed mRNA in the presence of chemical substance/The level of expressed mRNA in the absence of chemical substance", "setting": "yeast gene YDR529C, cells incubated two hours with the chemical substance", "result": 1.2}, {"measurement": "The level of expressed mRNA in the presence of chemical substance/The level of expressed mRNA in the absence of chemical substance", "setting": "yeast gene YEL024W, cells incubated two hours with the chemical substance", "result": 1.3}, {"measurement": "The level of expressed mRNA in the presence of chemical substance/The level of expressed mRNA in the absence of chemical substance", "setting": "yeast gene YEL039C, cells incubated two hours with the chemical substance", "result": 0.9}, {"measurement": "The level of expressed mRNA in the presence of chemical substance/The level of expressed mRNA in the absence of chemical substance", "setting": "yeast gene YER178W", "result": 0.7}, {"measurement": "The level of expressed mRNA in the presence of chemical substance/The level of expressed mRNA in the absence of chemical substance", "setting": "yeast gene YFL057C", "result": 0.9}, {"measurement": "The level of expressed mRNA in the presence of chemical substance/The level of expressed mRNA in the absence of chemical substance", "setting": "yeast gene YFR053C", "result": 0.9}, {"measurement": "The level of expressed mRNA in the presence of chemical substance/The level of expressed mRNA in the absence of chemical substance", "setting": "yeast gene YGL018C, cells incubated two hours with the chemical substance", "result": 1.1}, {"measurement": "The level of expressed mRNA in the presence of chemical substance/The level of expressed mRNA in the absence of chemical substance", "setting": "yeast gene YGL062W", "result": 0.9}, {"measurement": "The level of expressed mRNA in the presence of chemical substance/The level of expressed mRNA in the absence of chemical substance", "setting": "yeast gene YGL187C, cells incubated two hours with the chemical substance", "result": 1.3}, {"measurement": "The level of expressed mRNA in the presence of chemical substance/The level of expressed mRNA in the absence of chemical substance", "setting": "yeast gene YGL191W, cells incubated two hours with the chemical substance", "result": 0.9}, {"measurement": "The level of expressed mRNA in the presence of chemical substance/The level of expressed mRNA in the absence of chemical substance", "setting": "yeast gene YGL205W, cells incubated two hours with the chemical substance", "result": 1.1}, {"measurement": "The level of expressed mRNA in the presence of chemical substance/The level of expressed mRNA in the absence of chemical substance", "setting": "yeast gene YGL256W, cells incubated two hours with the chemical substance", "result": 0.7}, {"measurement": "The level of expressed mRNA in the presence of chemical substance/The level of expressed mRNA in the absence of chemical substance", "setting": "yeast gene YGR008C", "result": 0.9}, {"measurement": "The level of expressed mRNA in the presence of chemical substance/The level of expressed mRNA in the absence of chemical substance", "setting": "yeast gene YGR043C", "result": 0.9}, {"measurement": "The level of expressed mRNA in the presence of chemical substance/The level of expressed mRNA in the absence of chemical substance", "setting": "yeast gene YGR062C, cells incubated two hours with the chemical substance, 25° C., YPD medium", "result": 0.7}, {"measurement": "The level of expressed mRNA in the presence of chemical substance/The level of expressed mRNA in the absence of chemical substance", "setting": "yeast gene YGR087C, cells incubated two hours with the chemical substance", "result": 1.0}, {"measurement": "The level of expressed mRNA in the presence of chemical substance/The level of expressed mRNA in the absence of chemical substance", "setting": "yeast gene YGR174C, cells incubated two hours with the chemical substance", "result": 1.0}, {"measurement": "The level of expressed mRNA in the presence of chemical substance/The level of expressed mRNA in the absence of chemical substance", "setting": "yeast gene YGR192C", "result": 1.1}, {"measurement": "The level of expressed mRNA in the presence of chemical substance/The level of expressed mRNA in the absence of chemical substance", "setting": "yeast gene YGR244C", "result": 0.8}, {"measurement": "The level of expressed mRNA in the presence of chemical substance/The level of expressed mRNA in the absence of chemical substance", "setting": "yeast gene YGR254W", "result": 1.2}, {"measurement": "The level of expressed mRNA in the presence of chemical substance/The level of expressed mRNA in the absence of chemical substance", "setting": "yeast gene YHR179W", "result": 1.2}, {"measurement": "The level of expressed mRNA in the presence of chemical substance/The level of expressed mRNA in the absence of chemical substance", "setting": "yeast gene YIL160C", "result": 1.0}, {"measurement": "The level of expressed mRNA in the presence of chemical substance/The level of expressed mRNA in the absence of chemical substance", "setting": "yeast gene YIR031C, cells incubated two hours with the chemical substance", "result": 1.6}, {"measurement": "The level of expressed mRNA in the presence of chemical substance/The level of expressed mRNA in the absence of chemical substance", "setting": "yeast gene YJL052W", "result": 0.7}, {"measurement": "The level of expressed mRNA in the presence of chemical substance/The level of expressed mRNA in the absence of chemical substance", "setting": "yeast gene YJL121C, cells incubated two hours with the chemical substance", "result": 1.0}, {"measurement": "The level of expressed mRNA in the presence of chemical substance/The level of expressed mRNA in the absence of chemical substance", "setting": "yeast gene YJL166W, cells incubated two hours with the chemical substance", "result": 1.6}, {"measurement": "The level of expressed mRNA in the presence of chemical substance/The level of expressed mRNA in the absence of chemical substance", "setting": "yeast gene YJL216C, cells incubated two hours with the chemical substance", "result": 0.8}]}]}
